Legend:
[1] = Renal function in vivo in anesthetized rats (AP, Hct, RPF, GFR) during intrarenal arterial infusion; design: species or system male Munich-Wistar rats; conditions: for AP / GFR / Hct / RPF: LXA4 20-min infusion, n=3
From the text: Statistical: ANOVA with Bonferroni modification for multiple pre-planned comparisons was used, within each group and between groups, to compare the changes in various whole kidney and microcirculatory indices which occurred from one period to another. In phosphoinositide generation studies, increases in [^3 H]-IP3 CPMs in agonist-treated cells were compared to vehicle-treated controls using upaired students t-test. Differences were considered significant at a p value ≤0.05. All values are reported as means ± SEM.
Inulin and para-aminohippurate (PAH) clearances Were used to measure GFR and effective RPF. A needle was placed at the take-off of the left renal artery through which a maintenance infusion of 0.9% NaCl at a rate of 0.05 ml/min was initiated. […] Two experimental groups
Group I (n=14). First period: Clearances were performed during vehicle infusion.
Group II (n=12). First period: Clearances were performed during vehicle infusion.

[2] = target: T1, mesangial cell LTD4 receptor (Rattus norvegicus, UniProt Q924T8); experiment: biochemical
T1 sequence (Q924T8 1-339): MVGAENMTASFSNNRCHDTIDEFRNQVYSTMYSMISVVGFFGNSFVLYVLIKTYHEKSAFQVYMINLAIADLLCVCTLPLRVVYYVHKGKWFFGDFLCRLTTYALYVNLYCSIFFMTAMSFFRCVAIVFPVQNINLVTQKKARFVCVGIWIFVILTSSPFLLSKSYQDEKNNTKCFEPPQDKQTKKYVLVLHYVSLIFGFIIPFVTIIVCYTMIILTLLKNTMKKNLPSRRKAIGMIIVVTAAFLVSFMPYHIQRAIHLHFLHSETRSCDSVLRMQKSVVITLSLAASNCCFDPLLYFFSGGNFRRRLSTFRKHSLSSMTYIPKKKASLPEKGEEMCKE
Method: Mesangial Cell Culture: Rat mesangial cells were isolated and cultured as described previously (Harris, R. C., et al., J. Clin. Invest. 82:1028-1039(1988). Briefly, kidneys were exicesed from two young Sprague-Dawly rats under sterile conditions, and the cortices removed, minced, and washed several times in Hank's Balanced Salt Solution, containing 10 mM HEPES pH 7.4, amphotericin (0.25 μg/ml), and gentamicin (50 μg/ml). The tissue was then passed through consecutive sterilized stainless mesh filters with pore sizes of 212 μm, 150 μm, and then onto the final mesh of 75 μm. The isolated glomeruli were harvested from the surface of the 75 μm. The isolated glomeruli were harvested from the surface of the 75 μm filter and washed twisce with the Hank's Media. The glomeruli were suspended in RPMI 1640 Medium with 15% Fetal Bovine Serum (Givco), penicillin (100 μ/ml) and streptomycin (100 μg/ml) (Gibco), plated into 100 mm cell culture petri dishes, and incubated at 37° C. in a humidified atmosphere of 95% air and 5% air and 5% CO2. Mesangial cell colonies were subcultured in 60 mm culture dishes, and experiments were carried out in cells from passages 2 to 12. […] Cells were routinely grown in RPMI-1640, supplemented with 20% fetal calf serum, penicillin 100 μ/ml, and streptomycin 100 μg/ml.
Binding studies were routinely performed at 4° C. […] The cells were then dissolved with 1.0 ml of 1.0 N NaOH, neutralized with HCl, dissolved in 10 ml of Aquasol (New England Nuclear, Boston, MA), and the bound radioactivity was determined using a scintillation counter (Beckman Instruments). […] Cell density was determined by counting cells from replicate wells, using a Coulter Counter ZBi (Coulter Electronics, Inc., Hialeah, Fla.).

[3] = Group II, third period, LTD4 in the presence of LXA4
[4] = LTD4 14.0 μg/kg/min + LXA4, p<0.05 vs baseline
[5] = LTD4 20.0 μg/kg/min + LXA4, p<0.05 vs baseline

With `CCCCC[C@H](O)/C=C/C=C\C=C\C=C\[C@@H](O)[C@@H](O)CCCC(=O)O` [LXA4, (5S,6R,15S)-5,6,15-trihydroxy-7,9,13-trans-11-cis-eicosatetraenoic acid] the “GFR and RPF change (in words)” value ([1]; Group II, LXA4 infusion, period 2) was “moderate increases”, the AP ([1]; Group II, period 2, subgroup A) was 121 ± 4 mmHg and the GFR ([1]; Group II, period 2, subgroup A) was 1.20 ± 0.20 mL/min. It also gave a Hct ([1]; Group II, period 2, subgroup A) of 43.7 ± 0.9 Vol./dl, an RPF ([1]; Group II, period 2, subgroup A) of 4.50 ± 0.08 mL/min and an AP ([1]; Group II, period 2, subgroup B) of 120 ± 0 mmHg. The GFR ([1]; Group II, period 2, subgroup B) was 0.98 ± 0.06 mL/min, the Hct ([1]; Group II, period 2, subgroup B) was 44.7 ± 1.2 Vol./dl and the RPF ([1]; Group II, period 2, subgroup B) was 4.76 ± 0.83 mL/min. For the same molecule, the AP ([1]; Group II, period 2, subgroup C) was 127 ± 2 mmHg, the GFR ([1]; Group II, period 2, subgroup C) was 1.30 ± 0.10 mL/min and the Hct ([1]; Group II, period 2, subgroup C) was 45.2 ± 0.7 Vol./dl. For the same molecule, the RPF ([1]; Group II, period 2, subgroup C) was 4.87 ± 0.10 mL/min, the AP ([1]; Group II, period 2, subgroup D) was 108 ± 3 mmHg and the GFR ([1]; Group II, period 2, subgroup D) was 1.27 ± 0.04 mL/min. For the same molecule, the Hct ([1]; Group II, period 2, subgroup D) was 44.5 ± 0.3 Vol./dl, the RPF ([1]; Group II, period 2, subgroup D) was 4.58 ± 0.20 mL/min and the “Effect on LTD4-induced falls in RPF” value [1, 3] was “without effect”. The “Effect on LTD4-provoked reduction in GFR” value [1, 3] was “marked blunting”, the “Mean percent fall in GFR during LTD4 in the presence of LXA4” value (from here on “Mean percent fall in GFR during LTD4”) ([1]; LTD4 0.5 μg/kg/min + LXA4) was 9% and the “Mean percent fall in RPF during LTD4 in the presence of LXA4” value (“Mean percent fall in RPF during LTD4” below) ([1]; LTD4 0.5 μg/kg/min + LXA4, p<0.05 vs baseline) was 20%. For the same molecule, the “Mean percent fall in GFR during LTD4” value ([1]; LTD4 7.0 μg/kg/min + LXA4) was 11%, the “Mean percent fall in RPF during LTD4” value ([1]; LTD4 7.0 μg/kg/min + LXA4, p<0.05 vs baseline) was 37% and the “Mean percent fall in GFR during LTD4” value [1, 4] was 42%. The “Mean percent fall in RPF during LTD4” value [1, 4] was 51%, the “Mean percent fall in GFR during LTD4” value [1, 5] was 50% and the “Mean percent fall in RPF during LTD4” value [1, 5] was 68%. For the same molecule, the IC50 [2] was 100 nM.
